According to ChEMBL document CHEMBL3817757, “Unprecedented Binding Mode of Hydroxamate-Based Inhibitors of Glutamate Carboxypeptidase II: Structural Characterization and Biological Activity” (J Med Chem, 2016):
pIC50: −log10 of the molar value. The source made the active and inactive calls. The calls are words filed in the database; no cut-off is given here.

Tests used:
[1] = biological target: Glutamate carboxypeptidase 2 (Homo sapiens, UniProt Q04609); experiment: Inhibition of human recombinant GCP2 expressed in Schneider 2 cells preincubated for 15 mins using [3H]-NAAG/NAAG as substrate measured after 20 mins by liquid scintillation counting
Chain of Glutamate carboxypeptidase 2 (Q04609 whole entry): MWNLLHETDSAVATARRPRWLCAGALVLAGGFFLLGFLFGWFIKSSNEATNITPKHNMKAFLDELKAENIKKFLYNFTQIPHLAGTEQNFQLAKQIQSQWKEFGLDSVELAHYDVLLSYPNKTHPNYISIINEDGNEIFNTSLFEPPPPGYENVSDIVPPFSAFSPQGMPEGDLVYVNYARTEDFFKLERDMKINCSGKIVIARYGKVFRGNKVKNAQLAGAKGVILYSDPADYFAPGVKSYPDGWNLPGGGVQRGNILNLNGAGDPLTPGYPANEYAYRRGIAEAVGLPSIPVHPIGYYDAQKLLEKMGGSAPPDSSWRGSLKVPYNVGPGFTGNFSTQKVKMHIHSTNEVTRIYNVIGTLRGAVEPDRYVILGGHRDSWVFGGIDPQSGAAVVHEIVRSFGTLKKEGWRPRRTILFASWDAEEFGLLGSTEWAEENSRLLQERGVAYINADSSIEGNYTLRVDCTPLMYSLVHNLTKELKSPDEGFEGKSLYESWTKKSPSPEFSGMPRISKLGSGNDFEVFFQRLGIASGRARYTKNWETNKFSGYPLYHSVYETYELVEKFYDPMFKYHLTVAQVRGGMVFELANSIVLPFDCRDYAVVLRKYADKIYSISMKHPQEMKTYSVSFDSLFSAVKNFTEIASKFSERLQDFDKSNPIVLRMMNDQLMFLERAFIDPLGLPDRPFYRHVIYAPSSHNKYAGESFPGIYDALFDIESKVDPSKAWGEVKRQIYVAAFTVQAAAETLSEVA

[2] = Tmax in CD1 mouse plasma at 10 mg/kg, po by LC/MS/MS analysis; format: ADME, organism-based
Plasma = experiment: Plasma concentration in CD1 mouse at 10 mg/kg, po administered as single dose measured after 0.25 to 2 hrs by LC/MS/MS analysis; format: ADME, organism-based; conditions: in vivo
[3] = Drug uptake in CD1 mouse sciatic nerve at 10 mg/kg, po administered as single dose measured after 0.25 to 2 hrs by LC/MS/MS analysis; format: ADME, organism-based; conditions: in vivo
[4] = Ratio of CD1 mouse sciatic nerve AUC (0 to 2 hrs) to CD1 mouse plasma AUC (0 to 2 hrs); format: ADME, cell-free; conditions: in vivo
Rattus norvegicus [5] = experiment: Analgesic activity in Sprague-Dawley rat chronic constrictive injury model of neuropathic pain assessed as increase in paw withdrawal latencies in response to thermal stimulus at 10 mg/kg/day, po administered via oral gavage for 15 days measured from day 4 of compound dosing; format: functional, organism-based
Rattus norvegicus [6] = experiment: Effect on absolute paw withdrawal latency to thermal stimulus in sham operated Sprague-Dawley rat at 10 mg/kg/day, po administered via oral gavage for 15 days measured over compound dosing; format: ADME, organism-based; conditions: in vivo, 360 h

pIC50 [1] | Tmax [2] [min] | concentration (Plasma) [µM] | Drug uptake [3] | Ratio AUC [4] [%] | Structure (SMILES) | Activity (Rattus norvegicus [5]) | Activity (Rattus norvegicus [6])
7.36 | – | – | – | – | O=C(CC[C@H](Cc1ccc(C(=O)O)cc1)C(=O)O)NO | – | –
7.20 | – | – | – | – | O=C(CCC(Cc1ccc(C(=O)O)cc1)C(=O)O)NO (racemic) | – | –
7.01 | 15 | 0.121 | Active | 43 | O=C(CC[C@@H](Cc1ccc(C(=O)O)cc1)C(=O)O)NO | Active | Non-toxic
